Structures are written as SMILES. Bounds are passed on as bounds.

Assay type in all cases: cell-based
One assay deals with MelJuSo cells. The experiment in a line: Cell viability (CellTiter-Glo ATP content) in MelJuSo cells. As to conditions: Homo sapiens, MEL-JUSO, 72 hours treatment, cell survival by CellTiter-Glo, 2% fetal bovine serum. The gist of the method:
(§1)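 Cells plated at 5,000 per well in antibiotic-free RPMI with 2% FBS, treated next day in triplicate with increasing compound doses (final DMSO 0.5%) for 72 hours. Viability read as ATP content by CellTiter-Glo luminescence; percent survival relative to vehicle control set as 100%.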

In a further assay the test system is A549 cells. The experiment in a line: Cell viability (CellTiter-Glo ATP content) in A549 cells. As to conditions: Homo sapiens, A549, 72 h, 72 hours treatment, cell survival by CellTiter-Glo, 2% fetal bovine serum. The procedure, abridged:
as §1

A further assay concerns LOX cells. The experiment in a line: Cell viability (CellTiter-Glo ATP content) in LOX cells. As to conditions: LOX, 72 h, 72 hours treatment, cell survival by CellTiter-Glo, 2% fetal bovine serum. The gist of the method:
as §1
For orientation: ATP-based viability assays read luminescence as a measure of living cells.

A word on the IC50: it is the concentration needed to halve the response being measured. As to `COCCNC(=O)C1(C)C(c2ccsc2)C(c2ccc(F)cc2)=NN1c1ccc(F)cc1F` (stereo not drawn) [Compound 86, 1-(2,4-difluorophenyl)-3-(4-fluorophenyl)-N-(2-methoxyethyl)-5-methyl-4-(thiophen-3-yl)-4,5-dihydro-1H-pyrazole-5-carboxamide], the IC50 with MelJuSo cells, in the assay with A549 cells and in the assay on LOX cells was less than 0.25 µM in each case.

On to `CC1(C(=O)NCCCN2CCOCC2)C(c2cccs2)C(c2ccc(F)cc2)=NN1c1ccc(F)cc1F` (stereo not drawn) [Compound 122, 1-(2,4-difluorophenyl)-3-(4-fluorophenyl)-5-methyl-N-(3-morpholinopropyl)-4-(thiophen-2-yl)-4,5-dihydro-1H-pyrazole-5-carboxamide], for which the IC50 with MelJuSo cells, with A549 cells and in the assay on LOX cells was greater than 2 µM each time.

Turning to `CC1(C(=O)NCC(=O)NC2COC2)C(c2cccs2)C(c2ccc(F)cc2)=NN1c1ccc(F)cc1F` (stereo not drawn) [Compound 108, 1-(2,4-difluorophenyl)-3-(4-fluorophenyl)-5-methyl-N-(2-(oxetan-3-ylamino)-2-oxoethyl)-4-(thiophen-2-yl)-4,5-dihydro-1H-pyrazole-5-carboxamide], the IC50 with MelJuSo cells, with A549 cells and in the assay on LOX cells was greater than 2 µM throughout.

Regarding `CCCCC1C(c2ccc(F)cc2)=NN(c2ccc(Cl)cc2)C1(C)C(=O)NCCCC(C)(C)CO` (stereo not drawn) [Compound 12, 4-butyl-1-(4-chlorophenyl)-3-(4-fluorophenyl)-N-(5-hydroxy-4,4-dimethylpentyl)-5-methyl-4,5-dihydro-1H-pyrazole-5-carboxamide], the IC50 in the assay on MelJuSo cells is 1 to 2 µM; in the assay on A549 cells, greater than 2 µM; in the assay on LOX cells, 1 to 2 µM.

Take `CCCCC1C(c2ccc(F)cc2)=NN(c2ccccc2)C1(C)C(=O)NCC(C)N(C)C` (stereo not drawn) [Compound 76, 4-butyl-N-(2-(dimethylamino)propyl)-3-(4-fluorophenyl)-5-methyl-1-phenyl-4,5-dihydro-1H-pyrazole-5-carboxamide]: the IC50 in the assay on MelJuSo cells, in the assay with A549 cells and in the assay on LOX cells was greater than 2 µM throughout.

Take `CCCCC1C(c2ccc(F)cc2)=NN(c2ccccc2)C1(C)C(=O)NCCCCCCO` (stereo not drawn) [Compound 34, 4-butyl-3-(4-fluorophenyl)-N-(6-hydroxyhexyl)-5-methyl-1-phenyl-4,5-dihydro-1H-pyrazole-5-carboxamide]: the IC50 in the assay with MelJuSo cells is 0.5 to 1 µM; with A549 cells it was greater than 2 µM; in the assay on LOX cells, 0.5 to 1 µM.

With `CC1(C(=O)NCC(=O)NCCO)C(c2cccs2)C(c2ccc(F)cc2)=NN1c1ccc(F)cc1F` (stereo not drawn) [Compound 112, 1-(2,4-difluorophenyl)-3-(4-fluorophenyl)-N-(2-(2-hydroxyethylamino)-2-oxoethyl)-5-methyl-4-(thiophen-2-yl)-4,5-dihydro-1H-pyrazole-5-carboxamide], the IC50 in the assay on MelJuSo cells, in the assay with A549 cells and with LOX cells was greater than 2 µM in each case.

Turning to `CCCCC1C(c2ccc(F)cc2)=NN(c2ccccc2)C1(C)C(=O)NCc1cccc(Cl)c1` (stereo not drawn) [Compound 39, 4-butyl-N-(3-chlorobenzyl)-3-(4-fluorophenyl)-5-methyl-1-phenyl-4,5-dihydro-1H-pyrazole-5-carboxamide], the half-inhibitory concentration (IC50) in the assay with MelJuSo cells, with A549 cells and in the assay on LOX cells was greater than 2 µM in each case.

As for `CCCCC1C(c2ccc(S(C)(=O)=O)cc2)=NN(c2ccc(F)cc2F)C1(C)C(=O)NCCCC(C)(C)CO` (stereo not drawn) [Compound 113, 4-butyl-1-(2,4-difluorophenyl)-N-(5-hydroxy-4,4-dimethylpentyl)-5-methyl-3-(4-(methylsulfonyl)phenyl)-4,5-dihydro-1H-pyrazole-5-carboxamide], the IC50 with MelJuSo cells, in the assay on A549 cells and with LOX cells was greater than 2 µM in each case.

Take `CCCCC1C(c2ccc(F)cc2)=NN(c2ccc(F)cc2Cl)C1(C)C(=O)NCCCC(C)(C)CO` (stereo not drawn) [Compound 22, 4-butyl-1-(2-chloro-4-fluorophenyl)-3-(4-fluorophenyl)-N-(5-hydroxy-4,4-dimethylpentyl)-5-methyl-4,5-dihydro-1H-pyrazole-5-carboxamide]: the half-maximal inhibitory concentration (IC50) in the assay with MelJuSo cells, in the assay on A549 cells and in the assay on LOX cells was greater than 2 µM in each case.

Turning to `CC1(C(=O)NCCN2CCOCC2)C(c2cccs2)C(c2ccc(F)cc2)=NN1c1ccc(F)cc1F` (stereo not drawn) [Compound 126, 1-(2,4-difluorophenyl)-3-(4-fluorophenyl)-5-methyl-N-(2-morpholinoethyl)-4-(thiophen-2-yl)-4,5-dihydro-1H-pyrazole-5-carboxamide], the IC50 in the assay on MelJuSo cells, in the assay on A549 cells and in the assay with LOX cells was greater than 2 µM in each case.

As to `CCCCC1C(c2ccc(F)cc2)=NN(c2ccccc2)C1(C)C(=O)NCc1ccc(OC)cc1OC` (stereo not drawn) [Compound 46, 4-butyl-N-(2,4-dimethoxybenzyl)-3-(4-fluorophenyl)-5-methyl-1-phenyl-4,5-dihydro-1H-pyrazole-5-carboxamide], the IC50 with MelJuSo cells, in the assay on A549 cells and in the assay on LOX cells was greater than 2 µM in each case.

For `CCCCC1C(c2ccc(F)cc2)=NN(c2ccccc2)C1(C)C(=O)NCc1cccs1` (stereo not drawn) [Compound 67, 4-butyl-3-(4-fluorophenyl)-5-methyl-1-phenyl-N-(thiophen-2-ylmethyl)-4,5-dihydro-1H-pyrazole-5-carboxamide], the IC50 in the assay with MelJuSo cells, in the assay with A549 cells and in the assay with LOX cells was greater than 2 µM each time.

With `CCCCC1C(c2ccc(F)cc2)=NN(c2ccccc2)C1(C)C(=O)NCCF` (stereo not drawn) [Compound 70, 4-butyl-N-(2-fluoroethyl)-3-(4-fluorophenyl)-5-methyl-1-phenyl-4,5-dihydro-1H-pyrazole-5-carboxamide], the IC50 was 0.5 to 1 µM in the assay with MelJuSo cells, greater than 2 µM with A549 cells and 1 to 2 µM with LOX cells.

As to `CCCCC1C(c2ccc(F)cc2)=NN(c2ccc(Cl)cc2C)C1(C)C(=O)NCCCC(C)(C)CO` (stereo not drawn) [Compound 29, 4-butyl-1-(4-chloro-2-methylphenyl)-3-(4-fluorophenyl)-N-(5-hydroxy-4,4-dimethylpentyl)-5-methyl-4,5-dihydro-1H-pyrazole-5-carboxamide], the 50% inhibitory concentration (IC50) in the assay on MelJuSo cells, in the assay on A549 cells and in the assay with LOX cells was greater than 2 µM each time.

For the compound `Cc1ccc(C2C(c3ccc(F)cc3)=NN(c3ccc(F)cc3F)C2(C)C(=O)NCCCC(C)(C)CO)s1` (stereo not drawn) [Compound 99, 1-(2,4-difluorophenyl)-3-(4-fluorophenyl)-N-(5-hydroxy-4,4-dimethylpentyl)-5-methyl-4-(5-methylthiophen-2-yl)-4,5-dihydro-1H-pyrazole-5-carboxamide], the IC50 in the assay on MelJuSo cells was 1 to 2 µM; with A549 cells, greater than 2 µM; in the assay with LOX cells, greater than 2 µM.

Take `COCCNC(=O)C1(C)C(c2ccc(Cl)s2)C(c2ccc(F)cc2)=NN1c1ccc(F)cc1F` (stereo not drawn) [Compound 102, 4-(5-chlorothiophen-2-yl)-1-(2,4-difluorophenyl)-3-(4-fluorophenyl)-N-(2-methoxyethyl)-5-methyl-4,5-dihydro-1H-pyrazole-5-carboxamide]: the results for the 50% inhibitory concentration (IC50) in the assay on MelJuSo cells, in the assay with A549 cells and in the assay on LOX cells were 0.25 to 0.5 µM, 1 to 2 µM and 0.5 to 1 µM, respectively.

As to `CC1(O)CC(NC(=O)CNC(=O)C2(C)C(c3cccs3)C(c3ccc(F)cc3)=NN2c2ccc(F)cc2F)C1` (stereo not drawn) [Compound 110, 1-(2,4-difluorophenyl)-3-(4-fluorophenyl)-N-(2-(3-hydroxy-3-methylcyclobutylamino)-2-oxoethyl)-5-methyl-4-(thiophen-2-yl)-4,5-dihydro-1H-pyrazole-5-carboxamide], the IC50 in the assay on MelJuSo cells, in the assay on A549 cells and with LOX cells was greater than 2 µM in each case.

Consider `CCCCC1C(c2ccc(F)cc2)=NN(c2ccc(Cl)cc2C)C1(C)C(=O)NCCCOC` (stereo not drawn) [Compound 30, 4-butyl-1-(4-chloro-2-methylphenyl)-3-(4-fluorophenyl)-N-(3-methoxypropyl)-5-methyl-4,5-dihydro-1H-pyrazole-5-carboxamide], for which the IC50 in the assay on MelJuSo cells, with A549 cells and in the assay with LOX cells was greater than 2 µM throughout.

Consider `CCCCC1C(c2ccc(F)cc2)=NN(c2cccc(C)c2)C1(C)C(=O)NCCCC(C)(C)CO` (stereo not drawn) [Compound 61, 4-butyl-3-(4-fluorophenyl)-N-(5-hydroxy-4,4-dimethylpentyl)-5-methyl-1-m-tolyl-4,5-dihydro-1H-pyrazole-5-carboxamide], for which the IC50 in the assay with MelJuSo cells was 0.5 to 1 µM; with A549 cells it was greater than 2 µM; in the assay with LOX cells, 1 to 2 µM.

`CCCCC1C(c2ccc(F)cc2)=NN(c2cc(F)ccc2F)C1(C)C(=O)NCCCCC(C)(C)O` (stereo not drawn) [Compound 9, 4-butyl-1-(2,5-difluorophenyl)-3-(4-fluorophenyl)-N-(5-hydroxy-5-methylhexyl)-5-methyl-4,5-dihydro-1H-pyrazole-5-carboxamide]: the IC50 is 0.5 to 1 µM with MelJuSo cells, 1 to 2 µM in the assay on A549 cells and 0.5 to 1 µM in the assay on LOX cells.

Consider `CC(C)(O)CNC(=O)CNC(=O)C1(C)C(c2cccs2)C(c2ccc(F)cc2)=NN1c1ccc(F)cc1F` (stereo not drawn) [Compound 104, 1-(2,4-difluorophenyl)-3-(4-fluorophenyl)-N-(2-(2-hydroxy-2-methylpropylamino)-2-oxoethyl)-5-methyl-4-(thiophen-2-yl)-4,5-dihydro-1H-pyrazole-5-carboxamide], for which the IC50 was 0.5 to 1 µM in the assay on MelJuSo cells, greater than 2 µM with A549 cells and 1 to 2 µM with LOX cells.

Take `CC1(C(=O)NCC(=O)OCCO)C(c2cccs2)C(c2ccc(F)cc2)=NN1c1ccc(F)cc1F` (stereo not drawn) [Compound 128, 2-hydroxyethyl 2-(1-(2,4-difluorophenyl)-3-(4-fluorophenyl)-5-methyl-4-(thiophen-2-yl)-4,5-dihydro-1H-pyrazole-5-carboxamido)acetate]: the IC50 lay in the range of 0.25 to 0.5 µM in the assay on MelJuSo cells, 0.5 to 1 µM in the assay on A549 cells and 0.5 to 1 µM in the assay with LOX cells.

Source of the values: patent publication US12227482B2, “Compounds and compositions for the treatment of cancer” (The Regents of the University of California, priority 2016, dated 2025).
